# Assay results published in Sander's compilation of Henry's law constants (doi:10.1007/s002160101077).
# Test: Henry solubility constant Hcp at 298.15 K (mol/(m3 Pa))
# Conditions: reference: Pfeifer et al. (2001)
row,Henry solubility constant Hcp,Compound
1,0.0065,"COc1cc(Cl)c(Cl)c(Cl)c1Cl [1,2,3,4-tetrachloro-5-methoxybenzene]"
2,0.0031,"COc1c(Cl)cc(Cl)c(Cl)c1Cl [1,2,3,5-tetrachloro-4-methoxybenzene]"
3,0.013,"COc1ccc(Cl)c(Cl)c1Cl [1,2,3-trichloro-4-methoxybenzene]"
4,0.0044,"COc1cc(Cl)c(Cl)c(Cl)c1 [1,2,3-trichloro-5-methoxybenzene]"
5,0.0032,"COc1c(Cl)c(Cl)cc(Cl)c1Cl [1,2,4,5-tetrachloro-3-methoxybenzene]"
6,0.011,"COc1cc(Cl)c(Cl)cc1Cl [1,2,4-trichloro-5-methoxybenzene]"
7,0.022,"COc1cccc(Cl)c1Cl [1,2-dichloro-3-methoxybenzene]"
8,0.037,"COc1c(Br)cccc1Br [1,3-dibromo-2-methoxybenzene]"
9,0.0088,"COc1c(Cl)cccc1Cl [1,3-dichloro-2-methoxybenzene]"
10,0.0023,"COc1cc(Cl)cc(Cl)c1 [1,3-dichloro-5-methoxybenzene]"
11,0.021,"COc1cc(Cl)ccc1Cl [1,4-dichloro-2-methoxybenzene]"
12,0.081,"COc1ccc(Br)cc1Br [1,5-dibromo-2-methoxybenzene]"
13,0.012,"COc1ccc(Cl)cc1Cl [1,5-dichloro-2-methoxybenzene]"
14,0.029,COc1ccccc1Br [1-bromo-2-methoxybenzene]
15,0.0072,COc1cccc(Br)c1 [1-bromo-3-methoxybenzene]
16,0.011,COc1ccc(Br)cc1 [1-bromo-4-methoxybenzene]
17,0.045,COc1cccc(Cl)c1 [1-chloro-3-methoxybenzene]
18,0.0091,"COc1c(Br)cc(Br)c(Cl)c1Br [2,4,6-tribromo-3-chloro-1-methoxybenzene]"
19,0.0091,"COc1cc(Cl)c(Br)c(Cl)c1Br [2,4-dibromo-3,5-dichloro-1-methoxybenzene]"

row,Henry solubility constant Hcp,Compound
1,0.0098,"COc1c(Br)cc(Br)c(Cl)c1Cl [2,4-dibromo-5,6-dichloro-1-methoxybenzene]"
2,0.011,"COc1c(Br)cc(Cl)cc1Br [2,6-dibromo-4-chloro-1-methoxybenzene]"
3,0.011,"COc1cc(Cl)cc(Cl)c1Br [2-bromo-3,5-dichloro-1-methoxybenzene]"
4,0.012,"COc1c(Cl)cc(Cl)cc1Br [2-bromo-4,6-dichloro-1-methoxybenzene]"
5,0.018,COc1ccc(Cl)cc1Br [2-bromo-4-chloro-1-methoxybenzene]
6,0.014,COc1c(Cl)cccc1Br [2-bromo-6-chloro-1-methoxybenzene]
7,0.01,"COc1c(Cl)cc(Cl)c(Br)c1Cl [3-bromo-2,4,6-trichloro-1-methoxybenzene]"
8,0.01,"COc1c(Cl)c(Cl)cc(Br)c1Cl [3-bromo-2,5,6-trichloro-1-methoxybenzene]"
9,0.0092,"COc1c(Cl)c(Cl)c(Br)c(Cl)c1Cl [4-bromo-2,3,5,6-tetrachloro-1-methoxybenzene]"
10,0.01,"COc1c(Cl)cc(Br)c(Cl)c1Cl [4-bromo-2,3,6-trichloro-1-methoxybenzene]"
11,0.011,"COc1ccc(Br)c(Cl)c1Cl [4-bromo-2,3-dichloro-1-methoxybenzene]"
12,0.012,"COc1c(Cl)cc(Br)cc1Cl [4-bromo-2,6-dichloro-1-methoxybenzene]"
13,0.013,COc1ccc(Br)cc1Cl [4-bromo-2-chloro-1-methoxybenzene]
14,0.011,"COc1cc(Cl)c(Br)c(Cl)c1 [4-bromo-3,5-dichloro-1-methoxybenzene]"
15,0.011,"COc1cc(Br)c(Cl)cc1Cl [5-bromo-2,4-dichloro-1-methoxybenzene]"
16,0.011,"COc1c(Br)ccc(Cl)c1Cl [6-bromo-2,3-dichloro-1-methoxybenzene]"
17,1,COc1c(Br)c(Br)c(Br)c(Br)c1Br [pentabromomethoxybenzene]
18,0.0021,COc1c(Cl)c(Cl)c(Cl)c(Cl)c1Cl [pentachloromethoxybenzene]

row,Compound,Henry solubility constant Hcp
1,"COc1c(Cl)ccc(Cl)c1Cl [1,2,4-trichloro-3-methoxybenzene]",0.0098
2,"COc1ccc(Cl)c(Cl)c1 [1,2-dichloro-4-methoxybenzene]",0.0092
3,"COc1c(Br)cc(Br)cc1Br [1,3,5-tribromo-2-methoxybenzene]",0.013
4,"COc1c(Cl)cc(Cl)cc1Cl [1,3,5-trichloro-2-methoxybenzene]",0.0046
